According to patent publication US5968526A, “T cell epitopes of the major allergens from Dermatophagoides (house dust mite)” (Immulogic Pharamaceutical Corporation, priority 1995, dated 1999):

Tested on: T cell lines primed in vitro to Der p II
Test: secondary proliferation of Der p II-primed T cell lines (Examples VIII, X, XI)
Assay type: cell-based, human
Procedure: Experiments similar to those of Example V were performed to determine the T cell-reactive areas of the Der p II protein. For example, PBMC from house dust mite-allergic patient 348 were isolated as described in Example V and were stimulated in vitro with 20 μg/ml purified native Der p II.
The above procedure was followed with a number of patients except in individual cases, T cell lines were primed with recombinant Der p II at 20 μg/ml or at 3 μg/ml and x-irradiated (3500 Rads) autologous PBMC were used as antigen-presenting cells. The data was analyzed as described in Example V, except the ranked sum of peptide responses was analyzed assigning a value of 3, 2 or 1 to the three highest S.I. responses.
A study similar to that described in Example VII was carried out to determine the T cell cross-reactivity of the Der p II and Der f II proteins. T cells primed with the Der f II protein were challenged with various Der f II peptides and a set of substantially matching Der p II peptides.
Another experiment following the procedure described in Example VIII analyzed the response of 29 patients primed in vitro to the Der p II protein and challenged with selected peptides derived from the Der p II sequence.

| Substance | T cell reactivity (overlapping Der p II peptides, 26 positive experiments, FIG. 9) | T cell response (patient 348, native Der p II primed, data not shown) | T-cell reactivity (DPII-22 series development) (Der p II T-cell map and analogs) |
| --- | --- | --- | --- |
| DP II-8: Der p II peptide (DIKYTWNVPKIAPKSENVVVTVKVMG) | significant T cell reactivity | responds well | – |
| DP II-5: Der p II peptide (KIEIKASIDGLEVDVPGIDPNACHYMK) | – | – | high T-cell reactivity |
